Each structure is given as a SMILES string. Several values for one entry are separate records, joined by “and”; a condition that tells them apart may be missing. Equal values may be shown once. Read-outs that look alike come from different tables or passages of the source.

The target of data set [1] is human recombinant CB1 receptor (Homo sapiens, UniProt P21554). Briefly: Competition binding assay, displacement of [3H]-CP-55,940, CB1R. As to the method:
(§1) Binding at equilibrium was performed as previously reported. […] All compounds were tested following the procedure described by the manufacturer (Perkin Elmer, Italy). […] Ki values were calculated by applying the Cheng–Prusoff equation to the IC50 values (obtained by GraphPad) for the displacement of the bound radioligand by increasing concentrations of the test compound.
On the technique in general: In a radioligand displacement assay an active substance lowers the binding of a labelled ligand.

The target in data set [2] is T1, human CB2 receptor (Homo sapiens, UniProt P34972). Briefly: Competition binding assay, displacement of [3H]-CP-55,940, CB2R. On the set-up: logKiCB2 (nM) Exp.: unit not given here. On the procedure: as §1
T1 sequence (P34972 whole entry): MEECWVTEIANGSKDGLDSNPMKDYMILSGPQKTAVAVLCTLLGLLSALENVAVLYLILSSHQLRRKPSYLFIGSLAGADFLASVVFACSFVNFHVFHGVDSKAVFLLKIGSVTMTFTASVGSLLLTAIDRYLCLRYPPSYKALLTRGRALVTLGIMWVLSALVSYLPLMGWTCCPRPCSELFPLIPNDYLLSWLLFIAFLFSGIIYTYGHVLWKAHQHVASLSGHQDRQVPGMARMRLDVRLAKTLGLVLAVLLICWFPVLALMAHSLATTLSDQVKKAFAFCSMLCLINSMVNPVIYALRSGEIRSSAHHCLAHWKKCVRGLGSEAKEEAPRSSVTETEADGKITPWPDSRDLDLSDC
The target of data set [3] is T1, human CB2 receptor. Briefly: cAMP Hunter functional assay in NKH-477-stimulated CHO-K1 cells overexpressing CB2R. The settings on record: agonist mode / antagonist mode with JWH-133 4 µM challenge.
Where [4] appears, read: membranes from HEK cells, [3H]CP-55,940, mean ± SD, at least three experiments in duplicate, read-out: CB1R Ki.
[5] abbreviates: membranes from HEK cells, [3H]CP-55,940, mean ± SD, at least three experiments in duplicate, read-out: CB2R Ki.
The mark [6] stands for this setting: CB2R Ki, membranes from HEK cells, [3H]CP-55,940, mean ± SD, at least three experiments in duplicate.

human recombinant CB1 receptor, sequence (P21554 whole entry): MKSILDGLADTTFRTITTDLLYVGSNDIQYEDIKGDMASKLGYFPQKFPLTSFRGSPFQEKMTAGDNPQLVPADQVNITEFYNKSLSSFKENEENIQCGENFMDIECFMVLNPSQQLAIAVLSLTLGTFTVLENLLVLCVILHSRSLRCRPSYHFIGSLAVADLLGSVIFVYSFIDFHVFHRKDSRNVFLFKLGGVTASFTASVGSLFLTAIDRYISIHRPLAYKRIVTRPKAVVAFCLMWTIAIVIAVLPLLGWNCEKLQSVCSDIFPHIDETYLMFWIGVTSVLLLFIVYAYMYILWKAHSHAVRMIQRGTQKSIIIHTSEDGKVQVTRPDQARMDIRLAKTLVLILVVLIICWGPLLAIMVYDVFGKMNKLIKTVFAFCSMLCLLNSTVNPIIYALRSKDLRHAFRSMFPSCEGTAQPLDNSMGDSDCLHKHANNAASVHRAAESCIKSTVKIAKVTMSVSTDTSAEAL

Take `CCCCn1c(=O)c(C(=O)NC(C)(C)C)c(O)c2nn(C)cc21` [Compound 13, 4-(1-Butyl)-N-(tert-butyl)-7-hydroxy-2-methyl-5-oxo-4,5-dihydro-2H-pyrazolo[4,3-b]pyridine-6-carboxamide]: the Ki in data set [1] (setting [4]) was greater than 10 µM; at human CB2 receptor [2] (setting [5]) it was greater than 10000 nM.
The matching figures for `CCCCn1c(=O)c(C(=O)NC2CCCC2)c(O)c2nn(C)cc21` [Compound 14, 4-(1-Butyl)-N-cyclopentyl-7-hydroxy-2-methyl-5-oxo-4,5-dihydro-2H-pyrazolo[4,3-b]pyridine-6-carboxamide]: greater than 10 µM and greater than 10000 nM.
Consider `CCCCn1c(=O)c(C(=O)NC2CCCCCCC2)c(O)c2nn(C)cc21` [Compound 15, 4-(1-Butyl)-N-cyclooctyl-7-hydroxy-2-methyl-5-oxo-4,5-dihydro-2H-pyrazolo[4,3-b]pyridine-6-carboxamide], for which the inhibition constant (Ki) in data set [1] (setting [4]) was greater than 10 µM; at human CB2 receptor [2] (setting [6]), < 20 nM and 9.03 nM; at human CB2 receptor [2] (logKiCB2 (nM) Exp., log of experimental Ki), 14.5 nM. For the same compound, the “SI (selectivity index for CB2R, Ki(CB1R)/Ki(CB2R))” value at human CB2 receptor [2] was greater than 1107. Besides, on human CB2 receptor [3], the “Functional behavior at CB2R” value is listed as “antagonist/inverse agonist behavior”.
On to `CCCCn1c(=O)c(C(=O)Nc2ccc(F)cc2)c(O)c2nn(C)cc21` [Compound 16, 4-(1-Butyl)-N-(4-fluorophenyl)-7-hydroxy-2-methyl-5-oxo-4,5-dihydro-2H-pyrazolo[4,3-b]pyridine-6-carboxamide], for which the figures for the Ki (in data set [1] (setting [4]); at human CB2 receptor [2] (setting [5])) were greater than 10 µM and greater than 10000 nM, respectively.
The corresponding values for `CCCCn1c(=O)c(C(=O)NCc2ccc(F)cc2)c(O)c2nn(C)cc21` [Compound 17, 4-(1-Butyl)-N-(4-fluorobenzyl)-7-hydroxy-2-methyl-5-oxo-4,5-dihydro-2H-pyrazolo[4,3-b]pyridine-6-carboxamide] are greater than 10 µM and greater than 10000 nM.
As for `CCCCn1c(=O)c(C(=O)NC(c2ccccc2)c2ccccc2)c(O)c2nn(C)cc21` [Compound 19, N-Benzhydryl-4-(1-butyl)-7-hydroxy-2-methyl-5-oxo-4,5-dihydro-2H-pyrazolo[4,3-b]pyridine-6-carboxamide], the Ki in data set [1] (setting [4]) is greater than 10 µM; at human CB2 receptor [2] (setting [5]) it was 142 ± 110 nM. The “SI (selectivity index for CB2R, Ki(CB1R)/Ki(CB2R))” value on human CB2 receptor [2] was greater than 70. Besides, the “logKiCB2 (nM) Exp.” value at human CB2 receptor [2] (log of experimental Ki) is given as 2.15.
Take `CCCCn1c(=O)c(C(=O)N[C@@H](Cc2ccccc2)C(=O)OC(C)(C)C)c(O)c2nn(C)cc21` [Compound 20, tert-Butyl (4-Butyl-7-hydroxy-2-methyl-5-oxo-4,5-dihydro-2H-pyrazolo[4,3-b]pyridine-6-carbonyl)-L-phenylalaninate]: the Ki is greater than 10 µM in data set [1] (setting [4]) and greater than 10000 nM at human CB2 receptor [2] (setting [5]).
`CC(C)n1c(=O)c(C(=O)NC23CC4CC(CC(C4)C2)C3)c(O)c2nn(C)cc21` [Compound 21, N-(Adamantan-1-yl)-7-hydroxy-4-isopropyl-2-methyl-5-oxo-4,5-dihydro-2H-pyrazolo[4,3-b]pyridine-6-carboxamide]: the inhibition constant Ki in data set [1] was greater than 10 µM; on human CB2 receptor [2] (setting [6]) it was greater than 10000 nM.
In the case of `CC(C)n1c(=O)c(C(=O)NC23CC4CC(CC(O)(C4)C2)C3)c(O)c2nn(C)cc21` [Compound 22, 7-Hydroxy-N-(1-hydroxyadamantan-3-yl)-4-isopropyl-2-methyl-5-oxo-4,5-dihydro-2H-pyrazolo[4,3-b]pyridine-6-carboxamide], the Ki is greater than 10 µM in data set [1] (setting [4]) and greater than 10000 nM on human CB2 receptor [2] (setting [5]).
The corresponding values for `CC(C)n1c(=O)c(C(=O)NC2CCCCCCC2)c(O)c2nn(C)cc21` [Compound 23, N-Cyclooctyl-7-hydroxy-4-isopropyl-2-methyl-5-oxo-4,5-dihydro-2H-pyrazolo[4,3-b]pyridine-6-carboxamide] are greater than 10 µM and greater than 10000 nM.
Regarding `CC(C)n1c(=O)c(C(=O)NC2CCCc3ccccc32)c(O)c2nn(C)cc21` (stereo not drawn) [Compound 24, 7-Hydroxy-4-isopropyl-2-methyl-5-oxo-N-(1,2,3,4-tetrahydronaphthalen-1-yl)-4,5-dihydro-2H-pyrazolo[4,3-b]pyridine-6-carboxamide], the figures for the inhibition constant (Ki) (in data set [1] (setting [4]); at human CB2 receptor [2] (setting [5])) were greater than 10 µM and greater than 10000 nM, respectively.
Consider `CC(C)n1c(=O)c(C(=O)NC(c2ccccc2)c2ccccc2)c(O)c2nn(C)cc21` [Compound 25, N-Benzhydryl-7-hydroxy-4-isopropyl-2-methyl-5-oxo-4,5-dihydro-2H-pyrazolo[4,3-b]pyridine-6-carboxamide], for which the inhibitory constant (Ki) was greater than 10 µM in data set [1] (setting [4]) and greater than 10000 nM at human CB2 receptor [2] (setting [5]).
`COc1ccc(Cn2c(=O)c(C(=O)NC34CC5CC(CC(C5)C3)C4)c(O)c3nn(C)cc32)c(OC)c1` [Compound 27, N-(Adamantan-1-yl)-4-(2,4-dimethoxybenzyl)-7-hydroxy-2-methyl-5-oxo-4,5-dihydro-2H-pyrazolo[4,3-b]pyridine-6-carboxamide]: the melting point is greater than 270 °C. Further, the inhibition constant Ki in data set [1] (setting [4]) was greater than 10 µM. Further, the “CB2 receptor affinity in words” value at human CB2 receptor [2] was “completely inactive”. In addition, the Ki at human CB2 receptor [2] (setting [5]) was greater than 10000 nM.
Compound `CCn1cc2c(n1)c(O)c(C(=O)NC13CC4CC(CC(C4)C1)C3)c(=O)n2CC` [Compound 33, N-(Adamantan-1-yl)-2,4-diethyl-7-hydroxy-5-oxo-4,5-dihydro-2H-pyrazolo[4,3-b]pyridine-6-carboxamide] showed a melting point of 245 to 247 °C. The Ki in data set [1] (setting [4]) was greater than 10 µM. Further, the “SI (selectivity index for CB2R, Ki(CB1R)/Ki(CB2R))” value on human CB2 receptor [2] is recorded as greater than 416. Also, at human CB2 receptor [2] (log of experimental Ki), the “logKiCB2 (nM) Exp.” value is listed as 1.38. Besides, at human CB2 receptor [2] (setting [5]), the inhibition constant Ki turned out to be 24 ± 15.3 nM.
As for `CCCCn1c(=O)c(C(=O)NC(C)(C)C)c(O)c2nn(CC)cc21` [Compound 34, 4-(1-Butyl)-N-(tert-butyl)-2-ethyl-7-hydroxy-5-oxo-4,5-dihydro-2H-pyrazolo[4,3-b]pyridine-6-carboxamide], the values for the Ki (in data set [1] (setting [4]); on human CB2 receptor [2] (setting [5])) were greater than 10 µM and 106 ± 18.1 nM, respectively. Also, the “SI (selectivity index for CB2R, Ki(CB1R)/Ki(CB2R))” value at human CB2 receptor [2] is recorded as greater than 95. Further, the “logKiCB2 (nM) Exp.” value on human CB2 receptor [2] (log of experimental Ki) was 2.02.
Turning to `CCCCn1c(=O)c(C(=O)NC23CC4CC(CC(C4)C2)C3)c(O)c2c1c(C)nn2C` [Compound 51, N-(Adamantan-1-yl)-4-(1-butyl)-7-hydroxy-1,3-dimethyl-5-oxo-4,5-dihydro-1H-pyrazolo[4,3-b]pyridine-6-carboxamide], the melting point was 162 to 165 °C. In addition, in data set [1] (setting [4]), the Ki is greater than 10 µM. Moreover, the “SI (selectivity index for CB2R, Ki(CB1R)/Ki(CB2R))” value at human CB2 receptor [2] is given as greater than 280. Moreover, affinity at human CB2 receptor [2] (setting [6]) was put at a Ki of 35.6 ± 19.5 nM. Also, the “logKiCB2 (nM) Exp.” value on human CB2 receptor [2] (log of experimental Ki) came to 1.55.
The matching figures for `CCCCCn1c(=O)c(C(=O)NC23CC4CC(CC(C4)C2)C3)c(O)c2c1c(C)nn2C` [Compound 52, N-(Adamantan-1-yl)-7-hydroxy-1,3-dimethyl-5-oxo-4-(1-pentyl)-4,5-dihydro-1H-pyrazolo[4,3-b]pyridine-6-carboxamide]: 167 to 169 °C, greater than 10 µM, greater than 293, 34.1 ± 4.88 nM and 1.53.
In the case of `Cc1c2c(nn1C)c(O)c(C(=O)NC13CC4CC(CC(C4)C1)C3)c(=O)n2C(C)C` [Compound 53, N-(Adamantan-1-yl)-7-hydroxy-4-isopropyl-2,3-dimethyl-5-oxo-4,5-dihydro-2H-pyrazolo[4,3-b]pyridine-6-carboxamide], the melting point was greater than 260 °C. In addition, in data set [1] (setting [4]), the Ki is greater than 10 µM. Further, the “CB2 receptor affinity in words” value on human CB2 receptor [2] is “inactive”. The inhibition constant (Ki) on human CB2 receptor [2] (setting [5]) was greater than 10000 nM.
As to `CCCCn1c(=O)c(C(=O)NC23CC4CC(CC(C4)C2)C3)c(O)c2nn(C)c(C)c21` [Compound 54, N-(Adamantan-1-yl)-4-(1-butyl)-7-hydroxy-2,3-dimethyl-5-oxo-4,5-dihydro-2H-pyrazolo[4,3-b]pyridine-6-carboxamide], the melting point lay within 213 to 216 °C. In data set [1], the “CB1 receptor activity in words” value is given as “not active at all”. In addition, in data set [1] (setting [4]), the inhibition constant (Ki) was greater than 10 µM. Besides, the Ki at human CB2 receptor [2] (setting [6]) was < 20 nM and 2.16 nM. For the same compound, the “logKiCB2 (nM) Exp.” value on human CB2 receptor [2] (log of experimental Ki) is listed as 0.33.
On to `CC(C)n1c(=O)c(C(=O)NC23CC4CC(CC(C4)C2)C3)c(O)c2n[nH]cc21` [Compound 56], for which the Ki in data set [1] (setting [4]) is greater than 10 µM; at human CB2 receptor [2] (setting [5]), greater than 10000 nM. In addition, at human CB2 receptor [2], the “CB2 receptor affinity in words” value is “inactive”.
As for `C#CCn1ncc2c1c(O)c(C(=O)NC13CC4CC(CC(C4)C1)C3)c(=O)n2C(C)C` [Compound 58], the Ki in data set [1] is greater than 10 µM; on human CB2 receptor [2] (setting [6]), 61.8 ± 20.8 nM. Besides, the “SI (selectivity index for CB2R, Ki(CB1R)/Ki(CB2R))” value at human CB2 receptor [2] was greater than 162. Also, the “logKiCB2 (nM) Exp.” value at human CB2 receptor [2] (log of experimental Ki) amounted to 1.79.
Consider `C#CCn1cc2c(n1)c(O)c(C(=O)NC13CC4CC(CC(C4)C1)C3)c(=O)n2C(C)C` [Compound 59], for which the values for the inhibitory constant (Ki) (in data set [1]; at human CB2 receptor [2] (setting [6])) were greater than 10 µM and greater than 10000 nM, respectively. On human CB2 receptor [2], the “CB2 receptor affinity in words” value is “inactive”.
As to `CC(C)n1c(=O)c(C(=O)NC23CC4CC(CC(C4)C2)C3)c(O)c2c1cnn2CC#N` [Compound 60], the inhibitory constant (Ki) in data set [1] (setting [4]) was greater than 10 µM; on human CB2 receptor [2] (setting [5]), 48.5 ± 10.9 nM. Moreover, the “SI (selectivity index for CB2R, Ki(CB1R)/Ki(CB2R))” value on human CB2 receptor [2] was greater than 206. Moreover, the “logKiCB2 (nM) Exp.” value at human CB2 receptor [2] (log of experimental Ki) was 1.68.
On to `CC(C)n1c(=O)c(C(=O)NC23CC4CC(CC(C4)C2)C3)c(O)c2nn(CC(=O)OC(C)(C)C)cc21` [Compound 61], for which the figures for the inhibitory constant (Ki) (in data set [1] (setting [4]); on human CB2 receptor [2] (setting [5])) were greater than 10 µM and greater than 10000 nM, respectively. The “CB2 receptor affinity in words” value at human CB2 receptor [2] is “inactive”.
The corresponding values for `CC(C)n1c(=O)c(C(=O)NC23CC4CC(CC(C4)C2)C3)c(O)c2nn(Cc3ccc(F)cc3)cc21` [Compound 62] are greater than 10 µM, greater than 10000 nM and “inactive”.

For orientation: Ki means the dissociation constant of the complex between target and ligand, obtained from inhibition or displacement. Usually melting point stands for the temperature of the solid-liquid transition.
